PubChem BioAssay AID256 (DTP/NCI, 2004)
Where “and” joins values, the source holds several entries; their conditions need not be identical. Equal values may be shown once. Toxic doses and inconclusive results are not listed.

Tested on: CD2F1 mice, L1210 leukemia ip, survival T/C
Assay: NCI In Vivo Anticancer Drug Screen. Data for tumor model L1210 Leukemia (intraperitoneal) in CD2F1 (CDF1) mice
Settings: higher = longer survival
How it was run: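 Each value reflects a quotient of treated over vehicle control outcomes in mice with a transplanted tumor.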

[1] = endpoint: mean survival time, dose: 25.0 mg/kg/injection, schedule: Q04DX003 (ip), vehicle: saline
[2] = endpoint: mean survival time, dose: 50.0 mg/kg/injection, schedule: Q04DX003 (ip), vehicle: saline
[3] = endpoint: mean survival time, dose: 75.0 mg/kg/injection, schedule: Q01DX001 (ip), vehicle: other
[4] = endpoint: mean survival time, dose: 150.0 mg/kg/injection, schedule: Q01DX001 (ip), vehicle: other
[5] = endpoint: mean survival time, dose: 12.5 mg/kg/injection, schedule: Q04DX003 (ip), vehicle: Klucel (hydroxypropylcellulose) (HPC)
[6] = endpoint: mean survival time, dose: 25.0 mg/kg/injection, schedule: Q04DX003 (ip), vehicle: Klucel (hydroxypropylcellulose) (HPC)
[7] = endpoint: mean survival time, dose: 50.0 mg/kg/injection, schedule: Q04DX003 (ip), vehicle: Klucel (hydroxypropylcellulose) (HPC)

NC1=NCNC(=O)N1
T/C (endpoint: mean survival time, dose: 6.25 mg/kg/injection, schedule: Q04DX003 (ip), vehicle: saline): 102 % of control | T/C (endpoint: mean survival time, dose: 12.5 mg/kg/injection, schedule: Q04DX003 (ip), vehicle: saline): 91 % of control | T/C [1]: 93 % of control | T/C [2]: 98 % of control | T/C (endpoint: mean survival time, dose: 100.0 mg/kg/injection, schedule: Q04DX003 (ip), vehicle: saline): 96 % of control | T/C (endpoint: mean survival time, dose: 200.0 mg/kg/injection, schedule: Q04DX003 (ip), vehicle: saline): 96 % of control | T/C (endpoint: mean survival time, dose: 400.0 mg/kg/injection, schedule: Q04DX003 (ip), vehicle: saline): 98 % of control

Cc1[nH]nc(C(F)(F)F)c1N=NN1CCOCC1
T/C [3]: 100 % of control | T/C [4]: 109 % of control | T/C (endpoint: mean survival time, dose: 300.0 mg/kg/injection, schedule: Q01DX001 (ip), vehicle: other): 101 % of control

COc1cccc2c1C(=O)c1c(O)c3c(c(O)c1C2=O)CC(O)(/C(C)=N/NC(=O)CCC(=O)N/N=C(\C)C1(O)Cc2c(O)c4c(c(O)c2C(OC2CC(N)C(O)C(C)O2)C1)C(=O)c1c(OC)cccc1C4=O)CC3OC1CC(N)C(O)C(C)O1 (stereo not drawn)
T/C (endpoint: mean survival time, dose: 0.39 mg/kg/injection, schedule: Q01DX009 (ip), vehicle: water): 102 % of control | T/C (endpoint: mean survival time, dose: 0.78 mg/kg/injection, schedule: Q01DX009 (ip), vehicle: water): 106 % of control | T/C (endpoint: mean survival time, dose: 1.56 mg/kg/injection, schedule: Q01DX009 (ip), vehicle: water): 113 % of control and 101 % of control | T/C (endpoint: mean survival time, dose: 3.13 mg/kg/injection, schedule: Q01DX009 (ip), vehicle: water): 106 % of control and 111 % of control | T/C (endpoint: mean survival time, dose: 6.25 mg/kg/injection, schedule: Q01DX009 (ip), vehicle: water): 118 % of control | T/C (endpoint: mean survival time, dose: 12.5 mg/kg/injection, schedule: Q01DX009 (ip), vehicle: water): 150 % of control | T/C (endpoint: mean survival time, dose: 25.0 mg/kg/injection, schedule: Q01DX009 (ip), vehicle: water): 111 % of control

CCCCCC/C(C)=C(\C)c1cc(OC)cc(OC)c1
T/C (endpoint: mean survival time, dose: 100.0 mg/kg/injection, schedule: Q04DX003 (ip), vehicle: saline with Tween-80): 96 % of control | T/C (endpoint: mean survival time, dose: 200.0 mg/kg/injection, schedule: Q04DX003 (ip), vehicle: saline with Tween-80): 100 % of control

CC(=O)OCC1OC(c2nn(C(C)=O)c(C(N)=O)c2O)C(OC(C)=O)C1OC(C)=O (stereo not drawn)
T/C (endpoint: median survival time, dose: 25.0 mg/kg/injection, schedule: Q01DX005 (ip), vehicle: saline): 153 % of control | T/C (endpoint: median survival time, dose: 50.0 mg/kg/injection, schedule: Q01DX005 (ip), vehicle: saline): 166 % of control | T/C (endpoint: median survival time, dose: 100.0 mg/kg/injection, schedule: Q01DX005 (ip), vehicle: saline): 96 % of control

CC(=O)c1ccc(Oc2ccc(/C(C)=N\N=C(N)N)cc2)cc1
T/C [1]: 100 % of control | T/C [2]: 108 % of control | T/C [3]: 100 % of control | T/C [4]: 112 % of control

Cc1nc2cc(Cl)cc([N+](=O)[O-])c2nc1C
T/C (endpoint: mean survival time, dose: 100.0 mg/kg/injection, schedule: Q01DX001 (ip), vehicle: other): 103 % of control | T/C (endpoint: mean survival time, dose: 200.0 mg/kg/injection, schedule: Q01DX001 (ip), vehicle: other): 97 % of control | T/C (endpoint: mean survival time, dose: 400.0 mg/kg/injection, schedule: Q01DX001 (ip), vehicle: other): 97 % of control

[Cl][Pt+2][Cl].c1ccc(CC2CC[N-]CC2)cc1.c1ccc(CC2CC[N-]CC2)cc1
T/C (endpoint: mean survival time, dose: 50.0 mg/kg/injection, schedule: Q01DX001 (ip), vehicle: saline with Tween-80): 96 % of control | T/C (endpoint: mean survival time, dose: 100.0 mg/kg/injection, schedule: Q01DX001 (ip), vehicle: saline with Tween-80): 96 % of control | T/C (endpoint: mean survival time, dose: 200.0 mg/kg/injection, schedule: Q01DX001 (ip), vehicle: saline with Tween-80): 90 % of control

C=C(Br)CNCCCCCC
T/C [5]: 97 % of control | T/C [6]: 100 % of control | T/C [7]: 94 % of control

C1=CC2C3c4ccccc4C(C2C1)[n+]1ccccc13 (stereo not drawn)
T/C [5]: 95 % of control | T/C [6]: 97 % of control | T/C [7]: 93 % of control
